Reference: article PMC11580958 (bioRxiv, 2024)
Residues, ends and D or L forms follow the SMILES beside them. *: point of attachment. Cbz = O=C(OCc1ccccc1)*

Key:
[1] = system: BMDCs; assay: […] antigen presentation on DCs; type: cell-based, C57BL/6 mouse; conditions: CpG adjuvant, treatment 12-24 h, flow cytometry
[2] = biological target: CRBN protein (Homo sapiens, UniProt Q96SW2); assay: Nano ITC measurement of PROTAV-CRBN binding; conditions: data did not fit the binding model
Chain of CRBN protein (Q96SW2 whole entry, species assumed): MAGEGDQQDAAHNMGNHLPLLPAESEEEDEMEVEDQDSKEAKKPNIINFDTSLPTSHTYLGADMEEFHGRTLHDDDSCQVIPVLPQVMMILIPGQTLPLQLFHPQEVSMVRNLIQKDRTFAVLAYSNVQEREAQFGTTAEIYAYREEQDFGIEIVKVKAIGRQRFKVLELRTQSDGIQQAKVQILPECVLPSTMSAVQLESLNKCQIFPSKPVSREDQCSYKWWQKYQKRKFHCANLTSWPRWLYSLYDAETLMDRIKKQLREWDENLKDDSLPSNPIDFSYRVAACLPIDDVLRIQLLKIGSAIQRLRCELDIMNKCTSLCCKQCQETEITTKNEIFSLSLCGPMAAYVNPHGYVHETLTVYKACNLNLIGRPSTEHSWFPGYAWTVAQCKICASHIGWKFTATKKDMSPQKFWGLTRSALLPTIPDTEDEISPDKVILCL

For CC(C)C[C@@H](C=O)NC(=O)[C@H](CC(C)C)NC(=O)[C@H](CC(C)C)NC(=O)OCc1ccccc1 [MG132] (Cbz-Leu-Leu-Leu-aldehyde), the “H-2Kb/SIINFEKL presentation on DCs (in words)” value [1] was “reduced the level of SIINFEKL presentation on DCs”.

B1: chicken ovalbumin (protein)
chain: MGSIGAASMEFCFDVFKELKVHHANENIFYCPIAIMSALAMVYLGAKDSTRTQINKVVRFDKLPGFGDSIEAQCGTSVNVHSSLRDILNQITKPNDVYSFSLASRLYAEERYPILPEYLQCVKELYRGGLEPINFQTAADQARELINSWVESQTNGIIRNVLQPSSVDSQTAMVLVNAIVFKGLWEKAFKDEDTQAMPFRVTEQESKPVQMMYQIGLFRVASMASEKMKILELPFASGTMSMLVLLPDEVSGLEQLESIINFEKLTEWTSSNVMEERKIKVYLPRMKMEEKYNLTSVLMAMGITDVFSSSANLSGISSAESLKISQAVHAAHAEINEAGREVVGSAEAGVDAASVSEEFRADHPFLFCIKHIATNAVLFFGRCVSP
For B1, the “Binding to CRBN (in words)” value [2] was “negligible binding”.
